Results taken from patent US8338476B2, “Compositions and methods of sensitizing methicillin resistant Staphylococcus aureus to beta-lactam antibiotics” (priority 2005, dated 2012).
Read-outs that look alike come from different tables or passages of the source.

Experiments:
Assay type in all cases: cell-based, Staphylococcus aureus
[1] = tested on: mid-logarithmic EMRSA-16 cells; assay: Binding of catechins to S. aureus cells (HPLC assay of Kajiya et al); conditions: for fraction of the catechin pool bound to / associated with the cells: catechin alone, 20 min incubation at 35° C.
From the text: As S. aureus membranes are uniquely composed of phosphatidylglycerol (63-74%), lysylphosphatidylglycerol (17-22%), and cardiolipin (5-15%), the inventors determined the capacity of non-galloylated catechins to enhance ECG binding to S. aureus using the HPLC assay described by Kajiya et al (Kajiya, K., S. Kumazawa, and T. Nakayama. 2001. Steric effects on the interaction of tea catechins with lipid bilayers. Biosci. Biotechnol. Biochem. 65:2638-2643). EC, EGC, ECG and EGCG were provided by the Tokyo Food Techno Co. Ltd., Tokyo, Japan. S. aureus BB568 is a constitutive PBP2a producer (provided by B. Berger-Bächi, University of Zürich), and EMRSA-15 and EMRSA-16 were clinical isolates from the Royal Free Hospital, London. Binding of ECG to mid-logarithmic EMRSA-16 cells was enhanced by EC at concentrations of 25 mcg/ml. 13% of the EC pool bound after 20 min incubation at 35° C., and 22% of ECG was associated with the cells. In the presence of EC, ECG binding rose to 41%. […] EC appears, therefore, to facilitate ECG binding to staphylococcal cells as well as to PC and PE liposomes.

EMRSA-16 = assay: Checkerboard MIC assay, sensitization to oxacillin; conditions: for MIC: Staphylococcus aureus
Procedure: MICs were then recorded and the experiments were repeated in the presence of the non-galloylated catechin epicatechin at varying concentrations between 0 mcg/ml and 50 mcg/ml.
(§1) Checkerboard MIC assays were performed in 96-well microtiter trays with an inoculum of about 10^4 CFU in 200 μl of Mueller-Hinton broth (Oxoid, Basingstoke, United Kingdom) supplemented with 2% NaCl. MIC values were obtained after incubation at 35° C. for 24 h. S. aureus ATCC29213 was used as the standard susceptible strain. Fractional inhibitory concentration (FIC) indices for triple combinations were calculated as follows: ΣFIC=FICOXA+FICB+FICC=[C^combOXA/MIC^OXA]+[C^combB/MICB]+[C^combC/MICC], where C^combB, and C^combc are the concentrations of catechins tested. […] For combinations of two compounds the term (C^combC/MICC) was omitted. An FIC index of ≦0.5 indicates synergy.

[2] = tested on: EMRSA-16, EMRSA-15 and BB568; assay: Checkerboard MIC assay, results stated jointly for the three isolates
Procedure: as §1

S. aureus BB568 = assay: Checkerboard MIC assay, sensitization to oxacillin; conditions: for MIC: Staphylococcus aureus
Procedure: as §1

EMRSA-15 = assay: Checkerboard MIC assay, sensitization to oxacillin
Procedure: as §1

Compound: Oc1cc(O)c2c(c1)O[C@H](c1ccc(O)c(O)c1)[C@H](O)C2 [EC, epicatechin]
- EC binding in the presence of ECG ([1]; 20 min at 35° C.): 35.5%
- fraction of the catechin pool bound to / associated with the cells [1]: 13%

Compound: O=C(O[C@@H]1Cc2c(O)cc(O)cc2O[C@@H]1c1ccc(O)c(O)c1)c1cc(O)c(O)c(O)c1 [ECG, epicatechin gallate]
- ECG binding in the presence of EC ([1]; EC 25 mcg/ml, 20 min at 35° C.): 41%
- fraction of the catechin pool bound to / associated with the cells [1]: 22%
- growth of EMRSA-16 in the absence of oxacillin (EMRSA-16; ECG ≧12.5 mg/ml with both EC and EGC ≧50 mg/ml, no oxacillin): inhibited the growth

Compound: Oc1cc(O)c2c(c1)O[C@H](c1cc(O)c(O)c(O)c1)[C@H](O)C2 [EGC, epigallocatechin]
- FIC index, triple combination with oxacillin and ECG ([2]; FIC index ≦0.5 indicates synergy): strong synergy
- effect on the capacity of ECG to reduce oxacillin resistance ([2]; in combination with ECG and oxacillin): markedly enhanced
- enhancement of EGCG-mediated sensitization to oxacillin ([2]; in combination with EGCG and oxacillin, less than with ECG): could enhance sensitization
- effect of the non-galloylated catechin alone on the MIC of oxacillin ([2]; without ECG): unable to reduce the MIC of oxacillin

Compound: O=C(O[C@@H]1Cc2c(O)cc(O)cc2O[C@@H]1c1cc(O)c(O)c(O)c1)c1cc(O)c(O)c(O)c1 [EGCG, epigallocatechin gallate]
- effect of EGCG on the capacity of ECG to reduce the oxacillin MIC (S. aureus BB568; ECG 12.5 mg/ml): compromised the capacity of ECG to reduce the MICs
- effect on oxacillin MIC when added to ECG (EMRSA-16; ECG 0-12.5 mcg/ml, added catechin 0-50 mcg/ml): substantially no significant and synergistic effect
- effect of EGCG on the capacity of ECG to reduce the oxacillin MIC (EMRSA-16; ECG 12.5 mg/ml): compromised the capacity of ECG to reduce the MICs
- reduction of the oxacillin MIC by EGCG in the presence of ECG ([2]; ECG 3.12 mg/ml + EGCG 25 mg/ml, strain not stated): twofold
- sensitization to oxacillin by EGCG ([2]; EGCG without ECG, effect much less pronounced than with ECG): able to sensitize

Compound: Cc1onc(-c2ccccc2)c1C(=O)N[C@@H]1C(=O)N2[C@@H]1SC(C)(C)[C@@H]2C(=O)O [oxacillin]
- oxacillin MIC in the presence of ECG (EMRSA-15; ECG 3.12 mg/ml): a similar effect was achieved
- MIC (EMRSA-15; Staphylococcus aureus, 24 h, read-out: MIC of oxacillin): 16 µg/mL
- oxacillin MIC in the presence of ECG (S. aureus BB568; ECG 12.5 mg/ml): below the oxacillin breakpoint
- MIC (S. aureus BB568; BB568, read-out: oxacillin MIC in the presence of ECG and EC): 8 µg/mL
- MIC (S. aureus BB568; BB568, read-out: oxacillin MIC in the presence of ECG and EC, ECG 3.12 mg/ml + EC 25 mg/ml): 2 µg/mL
- oxacillin MIC in the presence of ECG (EMRSA-16; ECG 12.5 mg/ml): below the oxacillin breakpoint
- MIC (EMRSA-16; read-out: oxacillin MIC in the presence of ECG and EC, ECG 3.12 mg/ml + EC 25 mg/ml): 2 µg/mL
- MIC (EMRSA-16; read-out: oxacillin MIC in the presence of ECG and EC, ECG 3.12 mcg/ml + EC 6.25 mcg/ml): 8 µg/mL
